Test: Example 6: plasma, epithelial lining fluid (ELF) and alveolar macrophage (AM) concentrations at bronchoscopy with BAL
Conditions: 8-hour sampling time
Procedure: A total of twenty-five (n=25) male and female subjects who met the study entry criteria and completed all phases of the pharmacokinetic study were included in this pharmacokinetic analysis. […] Blood samples were collected to measure drug concentrations in plasma prior to (time 0), and at 1.5, 2.95, 3.083, 3.25, 3.5, 4, 6, and 8 hours after the start of a 3-hour intravenous infusion of the third combination dose.
Urea has been commonly used as an endogenous marker to estimate the apparent volume of ELF. Blood samples to determine plasma urea concentrations were obtained just prior to scheduled bronchoscopy. Aliquots of BAL were obtained to determine urea concentrations in BAL and cell count with differential. The standardized bronchoscopy with BAL procedure for the collection of intrapulmonary samples has been previously described in the references listed below.
(Reports MC14B-0013, MC14B-0015, MC14I-011, and MC14I-0012). The urea concentrations in plasma and BAL were performed with a microplate-based method with an 0-phthalaldehyde chromogenic solution at MicroConstants, Inc., San Diego, Calif.
The calculations of ELF volume and drug concentrations in ELF and AM were performed with BAL supernatant and pulmonary (alveolar) cells (“cell pellet”) from aspirates recovered from the 2nd, 3rd, and 4th instillations (BAL2). The concentration of drug (ABXELF) in the epithelial lining fluid (ELF) was determined as follows:
[…]
VELF is derived from the following:
where UreaBAL is the concentration of urea in BAL fluid and UreaP is the concentration of urea in plasma.
The concentration of drug (ABXAM) in the alveolar cells (AC) was determined as follows:
Differential cell count was performed to determine the number of macrophages present. A mean macrophage cell volume of 2.42 μl/106 cells was used in the calculations for volume of alveolar cells in the pellet suspension.
The concentration ratios of ELF and AM to the simultaneous plasma concentrations were calculated for each subject and summarized for each group at each sampling time. […] The 8-hour sampling time was also used as a value at time zero for determining the area term of plasma, ELF, and AM. The AUC0-8 for each matrix was determined with the linear trapezoidal method. The ratio of AUC0-8 of ELF to plasma and AM to plasma were calculated.

C[C@@H](O)[C@@H](C(=O)O)[C@@H]1NC(C(=O)O)=C(S[C@@H]2CN[C@H](C(=O)N(C)C)C2)[C@@H]1C [meropenem open-lactam]
ELF concentrations: below the quantifiable limit

From patent US20190105337A1, “METHODS OF TREATING BACTERIAL INFECTIONS” (priority 2015, published 2019)
